Structures can show the parent of a compound that is named as a salt. Where two headings read alike, the source gives them in different places.
How the values were obtained:
[1] = target: T1, PI3K; test: Kinase selectivity panel: PI3K (lipid kinase); format: biochemical, human; conditions: for IC50: human isoform, mean ± SD of triplicate experiments, read-out: PI3K, concentration required to inhibit enzyme activity by 50%
T1 construct: other: human isoform; mean ± SD of triplicate experimen; activity toward PI3K (in words)
Experimental: Thus potencies of each inhibitor were determined for human isoforms of ERK2, PI3K and PKCα. […] Data represent the concentrations required to inhibit enzyme activity by 50%, and are the mean ±SD of triplicate experiments. Results designated as “None” indicate that no inhibition was detected at concentrations up to 60 μM.

[2] = tested on: NCI/ADR cells (P-glycoprotein overexpression); test: Cytotoxicity, SRB binding assay, NCI/ADR; format: cell-based; conditions: Homo sapiens, NCI/ADR-RES, 48 h treatment, mean ± SD
Experimental: (§1) The SK inhibitor compounds of the invention are antiproliferative and induce apoptosis in replicating cells. In order to assess the compounds' efficacy in intact cells, the compounds were evaluated for cytotoxicity using a panel of human cancer cell lines. These experiments followed methods that have been extensively used (see for, example, Smith et al., Cancer Res. 54: 3779–3784 (1994); Smith et al., Oncology Res. 6: 211–218 (1994); and Lawrence et al., J. Med. Chem. 44: 594–601 (2001). Cell lines tested included T-24 human bladder carcinoma cells, MCF-7 human breast adenocarcinoma cells, MCF-7/VP cells, which are a subline of MCF-7 cells that is resistant to several anticancer drugs due to overexpression of the transport protein MRP 1, and NCI/ADR, a cell line resistant to many anticancer drugs due to overexpression of the drug transporter P-glycoprotein.
(§2) The indicated cell lines were treated with varying doses of compounds 1–4 for 48 h. Cell survival was then determined using the SRB binding assay (Skehan et al., 1990, J. Natl. Cancer Inst. 82: 1107–1112), and the concentration of compound that inhibited proliferation by 50% was calculated. Values represent the mean ±SD for replicate samples.
(§3) As these transporters are often overexpressed in tumor cells, particularly after the patient has been treated with cytotoxic drugs, the SK inhibiting compounds of the invention are effective therapeutic agents for resistant tumors.

[3] = tested on: T-24 human bladder carcinoma cells; test: Cytotoxicity, SRB binding assay, T24; format: cell-based; conditions: 48 h treatment, mean ± SD
Experimental: as §1, §2, §3

[4] = target: ERK2 (Homo sapiens, UniProt P28482); test: Kinase selectivity panel: ERK2; format: biochemical; conditions: for IC50: human isoform, mean ± SD of triplicate experiments, read-out: ERK2, concentration required to inhibit enzyme activity by 50%
Experimental: (§4) Thus potencies of each inhibitor were determined for human isoforms of ERK2, PI3K and PKCα. SK inhibition data is provided for comparison. Data represent the concentrations required to inhibit enzyme activity by 50%, and are the mean ±SD of triplicate experiments. Results designated as “None” indicate that no inhibition was detected at concentrations up to 60 μM.

[5] = tested on: MCF-7/VP cells (MRP 1 overexpression); test: Cytotoxicity, SRB binding assay, MCF-7/VP; format: cell-based; conditions: Homo sapiens, MCF7-VP, 48 h treatment, mean ± SD
Experimental: as §1, §2, §3

[6] = tested on: MCF-7 human breast adenocarcinoma cells; test: Cytotoxicity, SRB binding assay, MCF-7; format: cell-based; conditions: MCF7, 48 h treatment, mean ± SD
Experimental: as §1, §2, §3

[7] = target: PKCα (Homo sapiens, UniProt P17252); test: Kinase selectivity panel: PKCα; format: biochemical; conditions: for IC50: human isoform, mean ± SD of triplicate experiments, read-out: PKCα, concentration required to inhibit enzyme activity by 50%
Experimental: as §4

[8] = target: T2, recombinant human SK (Homo sapiens, UniProt Q9NYA1); test: Sphingosine kinase screen / inhibition of recombinant human SK ([3H]sphingosine to [3H]S1P); format: biochemical; conditions: for inhibition at 5 µg/mL: read-out: inhibited SK activity by %; for IC50: mean ± SD of triplicate experiments, read-out: SK, concentration required to inhibit enzyme activity by 50%
T2 construct: glutathione-S-transferase (GST); made in house; host or cells: bacteria (PGEX bacterial expression vector, Pharmacia)
Experimental: This method involved incubating [^3H]sphingosine with 1 mM ATP under conditions defined in the reference, followed by extraction of the assay mixture with chloroform:methanol (2:1) under basic conditions. […] Radioactivity in aliquots of the aqueous phase was then quantified as a measure of [^3H]S1P formation.
Varying concentrations of the indicated compounds were evaluated for inhibition of recombinant human SK as described above.

[9] = tested on: mouse JC mammary adenocarcinoma cells; test: Antitumor activity in syngeneic tumor model; format: in vivo, Balb/c mice; conditions: 75 mg/kg intraperitoneally on days 1, 5, 9 and 15
Experimental: These cells express elevated levels of SK activity relative to non-transformed cells, as well as the multidrug resistance phenotype due to P-glycoprotein activity (data not shown). Balb/c mice, 6–8 weeks old, were injected subcutaneously with […] suspended in PBS. […] The insert indicates the body weight of the animals during this experiment.

[10] = 5 μg/ml of compound (corresponds to 10–25 μM), 1 mM ATP

Sequence of ERK2 (P28482 whole entry, canonical isoform): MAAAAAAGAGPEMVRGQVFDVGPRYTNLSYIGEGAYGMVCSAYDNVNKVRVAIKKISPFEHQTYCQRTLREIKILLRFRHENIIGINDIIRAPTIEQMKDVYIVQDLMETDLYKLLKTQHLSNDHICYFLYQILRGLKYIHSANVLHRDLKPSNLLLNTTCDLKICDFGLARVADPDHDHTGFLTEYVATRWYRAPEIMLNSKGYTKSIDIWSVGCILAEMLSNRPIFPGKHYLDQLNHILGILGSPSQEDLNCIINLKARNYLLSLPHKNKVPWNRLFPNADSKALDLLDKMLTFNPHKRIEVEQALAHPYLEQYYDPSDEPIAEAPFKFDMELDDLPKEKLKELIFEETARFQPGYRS
T2 sequence (Q9NYA1 whole entry): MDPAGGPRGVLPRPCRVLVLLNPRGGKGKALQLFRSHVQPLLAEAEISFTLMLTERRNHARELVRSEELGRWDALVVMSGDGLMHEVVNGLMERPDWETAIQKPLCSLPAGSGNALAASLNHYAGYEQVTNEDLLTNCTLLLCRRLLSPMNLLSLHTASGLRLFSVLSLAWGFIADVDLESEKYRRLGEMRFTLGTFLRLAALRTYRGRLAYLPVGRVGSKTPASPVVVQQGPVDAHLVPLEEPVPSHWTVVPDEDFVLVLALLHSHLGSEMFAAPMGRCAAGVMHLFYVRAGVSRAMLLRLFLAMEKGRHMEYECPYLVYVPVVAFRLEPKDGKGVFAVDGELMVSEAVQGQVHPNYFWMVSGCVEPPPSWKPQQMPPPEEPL

Row | IC50 [1] [µM] | IC50 [4] [µM] | IC50 [7] [µM] | inhibition at 5 µg/mL [8, 10] [%] | SMILES | IC50 [2] [µM] | IC50 [3] [µM] | IC50 [5] [µM] | IC50 [6] [µM] | other results
1 | – | – | – | 91 | COc1ccc(-n2c(SCC(=O)Nc3nc4ccccc4s3)nc(O)cc2=O)cc1 [Compound 6, N-Benzothiazol-2-yl-2-[4-hydroxy-1-(4-methoxy-phenyl)-6-oxo-1,6-dihydro-pyrimidin-2-ylsulfanyl]-acetamide] | – | – | – | – | –
2 | – | – | – | 91 | O=S(=O)(c1ccc(O)cc1)c1ccc(O)c(C23CC4CC(CC(C4)C2)C3)c1 [Compound 7, 2-(1-adamantyl)-4-[(4-oxidophenyl)sulfonyl]benzenolate disodium salt] | – | – | – | – | –
3 | – | – | – | 98 | Cc1cc2nc3s/c(=C\c4cc(I)cc(I)c4O)c(=O)n3c2cc1C [Compound 8, 2-(2-Hydroxy-3,5-diiodo-benzylidene)-6,7-dimethyl-benzo[4,5] imidazo [2,1-b] thiazol-3-one] | – | – | – | – | –
4 | – | – | – | 94 | N#C/C(=C\c1ccc(O)c(O)c1)c1nc(-c2ccc3c(c2)OCO3)cs1 [Compound 9, 2-(4-Benzo[1,3]dioxol-5-yl-thiazol-2-yl)-3-(3,4-dihydroxy-phenyl)-acrylonitrile] | – | – | – | – | –
5 | – | – | – | 81 | CCOc1ccc2c(c1)NC(C)(C)c1ss/c(=N/c3ccc(O)cc3)c1-2 [Compound 10, 4-(7-Ethoxy-4,4-dimethyl-4,5-dihydro-2,3-dithia-5-aza-cyclopenta [α]naphthalen-1-ylideneamino)-phenol] | – | – | – | – | –
6 | – | – | – | 98 | O=C(/C=C(O)/C(O)=C/C(=O)c1ccccc1)c1ccccc1 [Compound 11, 3,4 -Dihydroxy-1,6-diphenyl-hexa-2,4-diene-1,6-dione] | – | – | – | – | –

Further lines, the compound ahead of its results:

Row | SMILES | IC50 [1] [µM] | IC50 [4] [µM] | IC50 [7] [µM] | inhibition at 5 µg/mL [8, 10] [%] | IC50 [2] [µM] | IC50 [3] [µM] | IC50 [5] [µM] | IC50 [6] [µM] | other results
7 | COc1ccc(N2C(=O)/C(=C\c3ccc(O)cc3O)SC2=S)cc1 [Compound 1, 5-(2,4-Dihydroxy-benzylidene)-3-(4-methoxy-phenyl)-2-thioxo-thiazolidin-4-one] | 42 ± 10 | 26 ± 2 | > 60 | 99 | 6.2 ± 1.5 | 5.8 ± 1.5 | 24.6 ± 1.9 | 6.8 ± 1.5 | IC50 [8]: 2.5 ± 0.7 µM
8 | O=C(N/N=C/c1c(O)ccc2ccccc12)c1cc(-c2ccc3ccccc3c2)n[nH]1 [Compound 2, 5-Naphthalen-2-yl-2H-pyrazole-3-carboxylic acid (2-hydroxy-naphthalen-1-ylmethylene)-hydrazide] | > 60 | 11 ± 1 | > 60 | – | 0.8 ± 1.3 | 1.1 ± 1.2 | 2.9 ± 2 | 0.4 | fold less potent toward ERK2 than SK ([4]; ERK2 versus SK): 10 fold; IC50 [8]: 1.2 ± 0.3 µM; inhibition at 5 µg/mL [8]: 85%
9 | Oc1ccc(Nc2nc(-c3ccc(Cl)cc3)cs2)cc1 [Compound 3, 4-[4-(4-Chloro-phenyl)-thiazol-2-ylamino]-phenol] | > 60 | > 60 | > 60 | 99 | 1.3 ± 1.1 | 4.6 ± 1.6 | 0.9 ± 1.8 | 1.2 ± 1.3 | activity toward PI3K (in words) [1]: no inhibition was seen; activity toward ERK2 (in words) [4]: no inhibition was seen; inhibition of PKCα (in words) [7]: no inhibition was seen
10 | O=C1/C(=C/c2ccc(O)c(O)c2)Sc2ccccc21 [Compound 4, 2-(3,4-Dihydroxy-benzylidene)-benzo [b] thiophen-3-one] | 7 ± 2 | 40 ± 5 | > 60 | 89 | 1.2 ± 2.4 | 7.8 ± 2 | 1.8 ± 1.1 | 1 ± 1.7 | activity toward PI3K (in words) [1]: moderate activity; activity toward ERK2 (in words) [4]: weak activity; IC50 [8]: 0.6 ± 0.1 µM
11 | O=C1/C(=C/c2ccc(O)c(O)c2)Oc2ccccc21 [Compound 5, 2-(3,4-Dihydroxy-benzylidene)-benzofuran-3-one] | – | 80 ± 4 | > 60 | – | – | – | – | – | difference in body weights versus control group [9]: No significant difference; tumor growth decreased versus control animals ([9]; day 18, volume relative to day 1): > 50%; activity toward PI3K (in words) [1]: moderate activity; activity toward ERK2 (in words) [4]: weak activity
12 | CCc1cc2c(s1)[S][Zn]1([N]=C2)[N]=Cc2cc(CC)sc2[S]1 [Compound 12] | – | – | – | – | – | – | – | – | inhibition at 5 µg/mL [8]: 87%
13 | CCCCCCCCCCCCC/C=C/[C@@H](O)[C@H](CO)N(C)C [dimethylsphingosine, reference compound] | – | – | – | – | – | – | – | – | inhibition of SK activity by positive control ([8]; at concentrations above 25 μM): completely inhibited

From patent publication US7220764B2, “Sphingosine kinase inhibitors” (The Pennsylvania State University Research Foundation, priority 2002, dated 2007)
